Data on 30 compounds can be found in US10005767B2, “Compositions and methods for inhibition of the JAK pathway” (Rigel Pharmaceuticals, Inc., priority 2009, dated 2018).

Structures can show the parent of a compound that is named as a salt. Where two headings read alike, the source gives them in different places.

This test concerns human primary T-cells, IL-2 stimulated proliferation (JAK-1 and JAK-3 dependent; reported as JAK3 activity). Description: Human primary T-cell proliferation stimulated by IL-2 (Example 3). Format: cell-based. Particulars: tested under conditions described in Example 3 (IL-2 stimulated human primary T-cell proliferation), read-out: ability to inhibit JAK3 activity, IC50 range (Table V). Summed up:
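Peripheral-blood human T-cells pre-activated via TCR/CD28, IL-2-starved overnight, then cultured 72 h at 37 °C with compound in Yssel's medium containing IL-2 (80 U/mL in cell suspension). Proliferation read as viable-cell ATP by CellTiter-Glo luminescence; reduction versus control taken as JAK pathway inhibition.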

A word on the IC50: it is the concentration needed to halve the response being measured. As to `CCOc1ccc(Nc2ncc(C)c(Nc3ccc4oc(=O)[nH]c4c3)n2)cc1C(F)(F)F` [Compound I-168, 5-[2-(4-Ethoxy-3-trifluoromethyl-phenylamino)-5-methyl-pyrimidin-4-ylamino]-3H-benzooxazol-2-one], for the setting “Homo sapiens, T-cell”, the IC50 fell in the range of 500 to 5000 nM.

Turning to `COc1ccc(Nc2ncc(C)c(Nc3ccc4oc(=O)[nH]c4c3)n2)cc1OCc1cccnc1` [Compound I-299, N2-{4-methoxy-3-[(pyridin-3-yl)methoxy]}phenyl-5-methyl-N4-(2-oxo-2,3-dihydro-1,3-benzoxazol-5-yl)-2,4-pyrimidinediamine], the IC50 is < 500 nM.

With `Cc1ccc(Nc2ncc(C)c(Nc3ccc4oc(=O)[nH]c4c3)n2)cc1S(=O)(=O)NC(C)(C)C` [Compound I-113, N4-(benzoxazolin-2-on-5-yl)-N2-[4-methyl-3-N-(t-butyl)aminosulfonylphenyl]-5-methylpyrimidine-2,4-diamine], the IC50 was < 500 nM.

Consider `COC(=O)c1ccc(Nc2ncc(C)c(Nc3ccc4oc(=O)[nH]c4c3)n2)cc1C` [Compound I-159, 2-Methyl-4-[5-methyl-4-(2-oxo-2,3-dihydro-benzooxazol-5-ylamino)-pyrimidin-2-ylamino]-benzoic acid methyl ester], for which the IC50 (Homo sapiens, T-cell) was < 500 nM.

On to `Cc1cnc(Nc2ccc(N3CCC(C)CC3)nc2)nc1Nc1ccc2oc(=O)[nH]c2c1` [II-6, N4-(benzo[d]oxazol-2(3H)-on-5-yl)-N2-(6-(4-methylpiperidin-1-yl)pyridin-3-yl)-5-methylpyrimidine-2,4-diamine], for which, where the note is “Homo sapiens, T-cell”, the IC50 was > 10000 nM.

Turning to `Cc1cnc(Nc2ccc(OC(C)(C)C#N)cc2)nc1Nc1ccc2oc(=O)[nH]c2c1` [Compound I-334, N2-[4-(1-cyano-1-methyl)ethoxy]phenyl-5-methyl-N4-(2-oxo-2,3-dihydro-1,3-benzoxazol-5-yl)-2,4-pyrimidinediamine], the 50% inhibitory concentration (IC50) was < 500 nM.

Regarding `Cc1cnc(Nc2ccncc2F)nc1Nc1ccc2oc(=O)[nH]c2c1` [IV-64, N2-(3-fluoropyridin-4-yl)-5-methyl-N4-(2-oxo-2,3-dihydro-1,3-benzoxazol-5-yl)-2,4-pyrimidinediamine trifluoroacetic acid salt], the IC50 (trifluoroacetic acid salt) was in the range of 500 to 5000 nM.

Turning to `Cc1cnc(Nc2cccc(S(N)(=O)=O)c2)nc1Nc1cc(C)c2oc(=O)[nH]c2c1` [Compound I-243, 3-(5-methyl-4-(7-methyl-2-oxo-2,3-dihydrobenzo[d]oxazol-5-ylamino)pyrimidin-2-ylamino)benzenesulfonamide], the IC50 (Homo sapiens, T-cell) is < 500 nM.

Regarding `Cc1cnc(Nc2cccc(OCC(=O)NC3CC3)c2)nc1Nc1ccc2oc(=O)[nH]c2c1` [Compound I-315, N2-[3-(cyclopropylaminocarbonylmethoxy)]phenyl-5-methyl-N4-(2-oxo-2,3-dihydro-1,3-benzoxazol-5-yl)-2,4-pyrimidinediamine], the IC50 was < 500 nM.

As for `Cc1cnc(Nc2ccc3c(c2)OCCO3)nc1Nc1ccc2oc(=O)[nH]c2c1` [IV-37, N2-(3,4-ethylenedioxy)phenyl-5-methyl-N4-(2-oxo-2,3-dihydro-1,3-benzoxazol-5-yl)-2,4-pyrimidinediamine], the IC50 was < 500 nM.

Regarding `Cc1cnc(Nc2ccc(OCC3CCC3)cc2)nc1Nc1ccc2oc(=O)[nH]c2c1` [Compound I-195, 5-[2-(4-Cyclobutylmethoxy-phenylamino)-5-methyl-pyrimidin-4-ylamino]-3H-benzooxazol-2-one], the IC50 (Homo sapiens, T-cell) is < 500 nM.

For `Cc1cnc(Nc2ccc3c(c2)CC(=O)N3C)nc1Nc1ccc2oc(=O)[nH]c2c1` [IV-27, 5-(5-methyl-2-(1-methyl-2-oxoindolin-5-ylamino)pyrimidin-4-ylamino)benzo[d]oxazol-2(3H)-one], the IC50 (Homo sapiens, T-cell) was < 500 nM.

In the case of `Cc1cnc(Nc2ccc(OC(C)(C)C(N)=O)cc2)nc1Nc1ccc2oc(=O)[nH]c2c1` [Compound I-324, N2-[4-(1-aminocarbonyl-1-methyl)ethoxy]phenyl-5-methyl-N4-(2-oxo-2,3-dihydro-1,3-benzoxazol-5-yl)-2,4-pyrimidinediamine], the IC50 was < 500 nM.

Consider `Cc1cnc(Nc2cccc3c2OC(F)(F)O3)nc1Nc1ccc2oc(=O)[nH]c2c1` [IV-11, 5-[2-(2,2-Difluoro-benzo[1,3]dioxol-4-ylamino)-5-methyl-pyrimidin-4-ylamino]-3H-benzooxazol-2-one], for which the IC50 (Homo sapiens, T-cell) was < 500 nM.

Consider `COc1cccc(Nc2ncc(C)c(Nc3ccc4oc(=O)[nH]c4c3)n2)c1C` [Compound I-328, N2-(3-methoxy-2-methyl)phenyl-5-methyl-N4-(2-oxo-2,3-dihydro-1,3-benzoxazol-5-yl)-2,4-pyrimidinediamine], for which the IC50 is 500 to 5000 nM.

Take `Cc1cnc(Nc2cnc(N3CC4CN(C(=O)OC(C)(C)C)CC4C3)c(F)c2)nc1Nc1ccc2oc(=O)[nH]c2c1` (stereo not drawn) [II-48, 5-{3-Fluoro-5-[5-methyl-4-(2-oxo-2,3-dihydro-benzooxazol-5-ylamino)-pyrimidin-2-ylamino]-pyridin-2-yl}-hexahydro-pyrrolo[3,4-c]pyrrole-2-carboxylic acid tert-butyl ester]: for the setting “Homo sapiens, T-cell”, the IC50 was < 500 nM.

Regarding `CCN(CC)C1CCN(C(C)c2cccc(Nc3ncc(C)c(Nc4ccc5oc(=O)[nH]c5c4)n3)c2)C1` (stereo not drawn) [Compound I-214, 5-(2-(3-(1-(3-(diethylamino)pyrrolidin-1-yl)ethyl)phenylamino)-5-methylpyrimidin-4-ylamino)benzo[d]oxazol-2(3H)-one], the IC50 (Homo sapiens, T-cell) was < 500 nM.

Consider `Cc1cnc(Nc2ccc(OCCO)nc2)nc1Nc1ccc2oc(=O)[nH]c2c1` [II-142, N2-[2-(2-hydroxy)ethoxypyridin-5-yl]-5-methyl-N4-(2-oxo-2,3-dihydro-1,3-benzoxazol-5-yl)-2,4-pyrimidinediamine], for which the IC50 is < 500 nM.

As to `Cc1cnc(Nc2ccc(N3CCC(NC(=O)C4CC4)C3)nc2)nc1Nc1ccc2oc(=O)[nH]c2c1` (stereo not drawn) [II-101, N-(1-(5-(5-methyl-4-(2-oxo-2,3-dihydrobenzo[d]oxazol-5-ylamino)pyrimidin-2-ylamino)pyridin-2-yl)pyrrolidin-3-yl)cyclopropanecarboxamide], where the note is “Homo sapiens, T-cell”, the IC50 is < 500 nM.

As for `COc1ccc(F)c(Nc2ncc(C)c(Nc3ccc4oc(=O)[nH]c4c3)n2)c1` [Compound I-533, 5-(2-(2-fluoro-5-methoxyphenylamino)-5-methylpyrimidin-4-ylamino)benzo[d]oxazol-2(3H)-one], where the note is “Homo sapiens, T-cell”, the IC50 is < 500 nM.

Turning to `CCOP(=O)(OCC)N1CCN(c2ccc(Nc3ncc(C)c(Nc4ccc5oc(=O)[nH]c5c4)n3)cn2)C[C@H]1C` [II-58, (R)-diethyl 2-methyl-4-(5-(5-methyl-4-(2-oxo-2,3-dihydrobenzo[d]oxazol-5-ylamino)pyrimidin-2-ylamino)pyridin-2-yl)piperazin-1-ylphosphonate], the half-maximal inhibitory concentration (IC50) is < 500 nM.

For the compound `O=c1[nH]c2cc(Nc3nc(Nc4cccc(OC(F)(F)F)c4)ncc3F)ccc2o1` [Compound I-107, N4-(benzoxazolin-2-on-5-yl)-N2-(3-trifluoromethoxyphenyl)-5-fluoropyrimidine-2,4-diamine trifluoroacetate salt], the IC50 (Homo sapiens, T-cell) was in the range of 500 to 5000 nM.

For `Cc1cnc(Nc2ccc(C(=O)N3CCN(C)CC3)cc2)nc1Nc1ccc2oc(=O)[nH]c2c1` [Compound I-322, 5-methyl-N2-[4-(4-methylpiperazin-1-yl)carbonyl]phenyl-N4-(2-oxo-2,3-dihydro-1,3-benzoxazol-5-yl)-2,4-pyrimidinediamine], the IC50 is < 500 nM.

With `Cc1cnc(Nc2ccc(OCCN3CCOCC3)c(Cl)c2)nc1Nc1ccc2oc(=O)[nH]c2c1` [Compound I-191, 5-{2-[3-Chloro-4-(2-morpholin-4-yl-ethoxy)-phenylamino]-5-methyl-pyrimidin-4-ylamino}-3H-benzooxazol-2-one], the IC50 (Homo sapiens, T-cell) is < 500 nM.

As for `Cc1cnc(Nc2cc(C)c(F)c(C)c2)nc1Nc1cc(F)c2oc(=O)[nH]c2c1` [Compound I-490, 7-fluoro-5-(2-(4-fluoro-3,5-dimethylphenylamino)-5-methylpyrimidin-4-ylamino)benzo[d]oxazol-2(3H)-one], the IC50 (Homo sapiens, T-cell) was < 500 nM.

Take `Cc1cnc(Nc2ccc(C)c(C)c2F)nc1Nc1ccc2oc(=O)[nH]c2c1` [Compound I-493, N2-(3,4-dimethyl-2-fluoro)phenyl-5-methyl-N4-(2-oxo-2,3-dihydro-1,3-benzoxazol-5-yl)-2,4-pyrimidinediamine]: the IC50 was < 500 nM.

Regarding `Cc1cnc(Nc2ccc(N3CCN(C)CC3)nc2)nc1Nc1ccc2[nH]c(=O)oc2c1` [II-25, 6-(5-methyl-2-(6-(4-methylpiperazin-1-yl)pyridin-3-ylamino)pyrimidin-4-ylamino)benzo[d]oxazol-2(3H)-one], under “Homo sapiens, T-cell”, the IC50 is < 500 nM.

Regarding `COc1cc(Nc2ncc(C)c(Nc3ccc4oc(=O)[nH]c4c3)n2)cc(C(=O)N2CCN(C)CC2)c1` [Compound I-255, 5-(2-(3-methoxy-5-(4-methylpiperazine-1-carbonyl)phenylamino)-5-methylpyrimidin-4-ylamino)benzo[d]oxazol-2(3H)-one], the IC50 (Homo sapiens, T-cell) was < 500 nM.

With `Cc1cnc(Nc2ccc(F)c(S(C)(=O)=O)c2)nc1Nc1cc(F)c2oc(=O)[nH]c2c1` [Compound I-250, 7-fluoro-5-(2-(4-fluoro-3-(methylsulfonyl)phenylamino)-5-methylpyrimidin-4-ylamino)benzo[d]oxazol-2(3H)-one], the IC50 (Homo sapiens, T-cell) was < 500 nM.

Take `Cc1cnc(Nc2ccc(N3CC[C@H](N(C)C)C3)nc2)nc1Nc1ccc2oc(=O)[nH]c2c1` [II-90, (S)-5-(2-(6-(3-(dimethylamino)pyrrolidin-1-yl)pyridin-3-ylamino)-5-methylpyrimidin-4-ylamino)benzo[d]oxazol-2(3H)-one]: where the note is “Homo sapiens, T-cell”, the IC50 is < 500 nM.
